The source made the active and inactive calls. No cut-off for these calls is given here.
Tests used:
HEK293 [1] = test: Selectivity ratio of Ki for human recombinant 5-HT2A receptor expressed in HEKT cell membrane to Ki for human recombinant 5-HT2B receptor stably expressed in HEK cells; type: cell-based
[2] = molecular target: T1, 5-hydroxytryptamine receptor 2B (Homo sapiens, UniProt P41595); test: Agonist activity at human recombinant 5-HT2B receptor expressed in Flp-In HEK cells preincubated for 10 mins by FLIPR based calcium mobilization assay; type: functional, cell-based; settings: HEK293
T1 sequence (P41595 whole entry): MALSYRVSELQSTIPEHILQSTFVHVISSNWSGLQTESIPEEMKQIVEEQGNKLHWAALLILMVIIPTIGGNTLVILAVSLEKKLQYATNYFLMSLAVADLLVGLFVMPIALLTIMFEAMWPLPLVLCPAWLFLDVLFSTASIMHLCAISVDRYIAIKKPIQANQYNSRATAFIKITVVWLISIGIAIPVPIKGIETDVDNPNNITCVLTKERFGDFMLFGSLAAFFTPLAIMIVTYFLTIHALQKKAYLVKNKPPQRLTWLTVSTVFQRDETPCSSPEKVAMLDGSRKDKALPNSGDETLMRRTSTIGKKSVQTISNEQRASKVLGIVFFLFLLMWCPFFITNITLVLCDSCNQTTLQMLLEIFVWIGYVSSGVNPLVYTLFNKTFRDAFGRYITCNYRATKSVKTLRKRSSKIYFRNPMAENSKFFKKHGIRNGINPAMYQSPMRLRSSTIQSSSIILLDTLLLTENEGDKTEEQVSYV

[3] = molecular target: T2, 5-hydroxytryptamine receptor 2C (Homo sapiens, UniProt P28335); test: Displacement of [3H]mesulergine from human recombinant 5-HT2C receptor expressed in Flp-IN HEK cell membrane after 90 mins by scintillation counting method; type: cell membranes, HEK293
T2 sequence (P28335 whole entry): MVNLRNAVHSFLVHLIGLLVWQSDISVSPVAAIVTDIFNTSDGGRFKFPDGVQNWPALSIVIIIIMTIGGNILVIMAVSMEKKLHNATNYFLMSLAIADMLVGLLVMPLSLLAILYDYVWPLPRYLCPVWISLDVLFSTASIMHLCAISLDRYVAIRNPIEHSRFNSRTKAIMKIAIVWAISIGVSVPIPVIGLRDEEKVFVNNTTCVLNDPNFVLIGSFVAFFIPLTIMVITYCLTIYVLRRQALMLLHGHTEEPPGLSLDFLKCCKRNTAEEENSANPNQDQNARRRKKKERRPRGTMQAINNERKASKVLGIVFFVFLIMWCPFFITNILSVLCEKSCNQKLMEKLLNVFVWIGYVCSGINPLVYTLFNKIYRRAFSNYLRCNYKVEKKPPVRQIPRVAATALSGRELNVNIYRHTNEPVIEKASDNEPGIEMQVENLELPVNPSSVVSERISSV

[4] = molecular target: T1, 5-hydroxytryptamine receptor 2B; test: Displacement of [3H]LSD from human recombinant 5-HT2B receptor stably expressed in HEK cell membrane after 90 mins by scintillation counting method; type: cell membranes, HEK293
HEK293 [5] = test: Selectivity ratio of Ki for human recombinant 5-HT2C receptor to Ki for human recombinant 5-HT2B receptor stably expressed in HEK cell membrane; type: cell-based
[6] = molecular target: T3, 5-hydroxytryptamine receptor 2A (Homo sapiens, UniProt P28223); test: Displacement of [3H]ketanserin from human recombinant 5-HT2A receptor expressed in HEKT cell membrane at 10 uM after 90 mins by scintillation counting method; type: cell membranes
T3 sequence (P28223 whole entry): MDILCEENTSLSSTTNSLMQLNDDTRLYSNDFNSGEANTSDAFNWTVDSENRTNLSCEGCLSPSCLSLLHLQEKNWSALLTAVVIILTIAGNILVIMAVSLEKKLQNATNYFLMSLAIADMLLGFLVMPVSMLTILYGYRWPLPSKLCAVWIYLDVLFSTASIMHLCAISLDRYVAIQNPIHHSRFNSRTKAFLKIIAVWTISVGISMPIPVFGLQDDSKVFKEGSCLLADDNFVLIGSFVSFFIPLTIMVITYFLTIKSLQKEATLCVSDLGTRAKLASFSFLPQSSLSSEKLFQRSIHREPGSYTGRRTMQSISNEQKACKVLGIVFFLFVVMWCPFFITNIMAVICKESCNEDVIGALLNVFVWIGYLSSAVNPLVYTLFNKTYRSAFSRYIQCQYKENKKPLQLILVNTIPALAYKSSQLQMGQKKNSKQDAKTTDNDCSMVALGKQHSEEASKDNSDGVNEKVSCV

[7] = molecular target: T1, 5-hydroxytryptamine receptor 2B; test: Displacement of [3H]LSD from human recombinant 5-HT2B receptor stably expressed in HEK cell membrane at 10 uM after 90 mins by scintillation counting method; type: cell membranes; settings: HEK293
[8] = molecular target: T1, 5-hydroxytryptamine receptor 2B; test: Antagonist activity at human recombinant 5-HT2B receptor expressed in Flp-In HEK cells in the presence of agonist preincubated for 10 mins by FLIPR based calcium mobilization assay; type: functional, cell-based, HEK293
[9] = molecular target: T4, 5-hydroxytryptamine receptor 2C (Homo sapiens) (UniProt P28335); test: Displacement of [3H]mesulergine from human recombinant 5-HT2C receptor expressed in Flp-IN HEK cell membrane at 10 uM after 90 mins by scintillation counting method; type: cell membranes; settings: HEK293
T4 sequence (whole entry): T2 sequence (P28335 whole entry)

[10] = molecular target: T3, 5-hydroxytryptamine receptor 2A; test: Displacement of [3H]ketanserin from human recombinant 5-HT2A receptor expressed in HEKT cell membrane after 90 mins by scintillation counting method; type: cell-based
[11] = molecular target: T1, 5-hydroxytryptamine receptor 2B; test: Antagonist activity at human recombinant 5-HT2B receptor expressed in Flp-In HEK cells at 10 uM in the presence of agonist preincubated for 10 mins by FLIPR based calcium mobilization assay; type: functional, cell-based; settings: HEK293

Activity [2]	Ki ([3]; read-out: Ki)	Ki [4]	inhibition [6]	inhibition [7]	IC50 [8]	inhibition [9]	Ki [10]	Activity [11]	Ki ([3]; hek293)	Compound	Ratio Ki (HEK293 [1])	Ratio Ki (HEK293 [5])
inactive	690 nM	17 nM	> 50%	> 50%	10000 nM	> 50%	1470 nM	–	–	COc1ccc(CCN(CCc2ccccc2)CCc2ccc3c(c2)OCO3)cc1OC	87	41
inactive	123 nM	5.8 nM	> 50%	> 50%	10000 nM	> 50%	140 nM	–	–	COc1ccccc1CCCN(CCc1ccc(OC)c(OC)c1)CCc1ccc2c(c1)OCO2	24	21
inactive	108 nM	4.6 nM	> 50%	> 50%	1260 nM	> 50%	200 nM	–	–	COc1cccc(CCCN(CCc2ccc(OC)c(OC)c2)CCc2ccc3c(c2)OCO3)c1	43	24
inactive	273 nM	36 nM	> 50%	> 50%	7940 nM	> 50%	919 nM	–	–	COc1ccc(OC)c(CCCN(CCc2ccc(OC)c(OC)c2)CCc2ccc3c(c2)OCO3)c1	26	8
inactive	103 nM	59 nM	> 50%	> 50%	–	> 50%	1510 nM	inactive	–	COc1cccc(CCCN(CCc2ccc(OC)c(OC)c2)Cc2ccc3c(c2)OCO3)c1	26	2
–	–	21 nM	–	–	–	–	–	–	–	Cn1ccc2cc3c(cc21)CCN3C(=O)Nc1cccnc1	–	–
inactive	–	231 nM	> 50%	> 50%	12600 nM	–	2230 nM	–	Not Active	COc1ccc(CCN(CCCc2cc(OC)c(OC)c(OC)c2)Cc2ccc3c(c2)OCO3)cc1OC	–	–
inactive	194 nM	4.1 nM	> 50%	> 50%	1260 nM	> 50%	146 nM	–	–	COc1ccc(CCN(CCCc2cc(OC)c(OC)c(OC)c2)CCc2ccc3c(c2)OCO3)cc1OC	36	47
–	1.8 nM	–	–	–	–	–	–	–	–	Cc1nc2sccn2c(=O)c1CCN1CCC(=C(c2ccc(F)cc2)c2ccc(F)cc2)CC1 [RITANSERIN]	–	–
inactive	206 nM	6.8 nM	> 50%	> 50%	3980 nM	> 50%	267 nM	–	–	COc1ccc(CCCN(CCc2ccc(OC)c(OC)c2)CCc2ccc3c(c2)OCO3)cc1	39	30
inactive	1090 nM	59 nM	> 50%	> 50%	–	> 50%	3530 nM	–	–	COc1ccc(CCN(CCc2ccc3c(c2)OCO3)Cc2ccccc2)cc1OC	60	19
inactive	241 nM	21 nM	> 50%	> 50%	6310 nM	> 50%	226 nM	–	–	COc1ccc(CCN(CC/C=C\c2ccccc2)Cc2ccc3c(c2)OCO3)cc1OC	11	12
